The results in this text go back to ChEMBL document CHEMBL1909294, “Translating clinical findings into knowledge in drug safety evaluation--drug induced liver injury prediction system (DILIps)” (PLoS Comput Biol, 2011).

Data set [1] has as its system Hepatotoxicity.
The subject of data set [2] is Hepatotoxicity. This is another data set of the same source.
Data set [3] has as its system Hepatotoxicity. The source holds these as a separate data set.
For data set [4], the system named is Hepatotoxicity. The source holds these as a separate data set.
Data set [5] has as its system Hepatotoxicity. This is another data set of the same source.
Data set [6] deals with Hepatotoxicity. This is another data set of the same source.
Data set [7] has as its system Hepatotoxicity. The source holds these as a separate data set.
The subject of data set [8] is Hepatotoxicity. This is another data set of the same source.
Data set [9] relates to Hepatotoxicity. This is another data set of the same source.
In data set [10] the test system is Hepatotoxicity. This is another data set of the same source.
Data set [11] has as its system Hepatotoxicity. This is another data set of the same source.
The test system of data set [12] is Hepatotoxicity. The source holds these as a separate data set.
For data set [13], the system named is Hepatotoxicity. The source holds these as a separate data set.
Data set [14] relates to Hepatotoxicity. This is another data set of the same source.
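Wherever HepSE Combined Scores is given: combined hepatic side effect score as listed in the training data of the Drug Induced Liver Injury Prediction System (DILIps).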
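Wherever HepSE bilirubinemia is given: bilirubinemia hepatic side effect score drawn from the DILIps training data, a prediction system for drug-induced liver injury; call rule not given here.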
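Wherever HepSE cholecystitis is given: Cholecystitis-related hepatic side effect score drawn from the DILIps (drug-induced liver injury prediction) training data set; call rule not given here.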
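Wherever HepSE cholelithiasis is given: hepatic side effect score for cholelithiasis, drawn from the DILIps training data for predicting drug-induced liver injury; call rule not given here.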
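Wherever HepSE cirrhosis is given: cirrhosis hepatic side effect score taken from the DILIps (drug-induced liver injury prediction) training set; call rule not given here.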
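Wherever HepSE elevated liver function tests is given: hepatic side effect score for raised liver function tests, as recorded in the DILIps training set used for predicting drug-induced liver injury.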
Wherever HepSE hepatic failure is given: call rule not given here.
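Wherever HepSE hepatic necrosis is given: score of hepatic side effects for hepatic necrosis, drawn from the training data of DILIps, a prediction system for drug-induced liver injury; call rule not given here.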
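Wherever HepSE hepatitis is given: Hepatitis-related hepatic side effect score taken from the training data of DILIps, a prediction system for drug-induced liver injury; call rule not given here.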
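Wherever HepSE hepatomegaly is given: hepatic side effect score for hepatomegaly, taken from the training set of the DILIps drug-induced liver injury prediction system; call rule not given here.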
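Wherever HepSE jaundice is given: Jaundice-related hepatic side-effect score drawn from the training data of the DILIps (drug-induced liver injury prediction system); call rule not given here.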
Wherever HepSE liver disease is given: call rule not given here.
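Wherever HepSE liver fatty is given: hepatic side effect score for fatty liver, taken from the DILIps training set for predicting drug-induced liver injury; call rule not given here.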
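Wherever HepSE liver function tests abnormal is given: hepatic side effect score taken from the DILIps (drug-induced liver injury prediction system) training data, here covering abnormal liver function test findings.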

In the case of `S=P(N1CC1)(N1CC1)N1CC1` [THIOTEPA], the HepSE_liver disease in the data set with Hepatotoxicity [1] worked out at 0. The “HepSE_elevated liver function tests” value in the data set on Hepatotoxicity [2] turned out to be 0. The compound also registered a HepSE_hepatitis with Hepatotoxicity [3] of 0. Moreover, the HepSE_liver fatty in the data set on Hepatotoxicity [4] is reported as 0. Besides, in the data set with Hepatotoxicity [5], the HepSE_cholelithiasis was 0. In addition, the HepSE_hepatic failure with Hepatotoxicity [6] is reported as 0. Moreover, the HepSE_cirrhosis in the data set with Hepatotoxicity [7] turned out to be 0. In the data set with Hepatotoxicity [8], this compound returned a HepSE_hepatic necrosis of 0. Further, the HepSE_cholecystitis in the data set with Hepatotoxicity [9] is given as 0. Also, the “HepSE_Combined Scores” value in the data set with Hepatotoxicity [10] amounted to 1. The compound further returned a HepSE_hepatomegaly in the data set on Hepatotoxicity [11] of 0. Besides, the “HepSE_liver function tests abnormal” value with Hepatotoxicity [12] worked out at 0. Also, the HepSE_bilirubinemia in the data set on Hepatotoxicity [13] was 1. Besides, in the data set with Hepatotoxicity [14], the HepSE_jaundice was determined as 0.
Take `CC[C@@H]([C@H](C)O)n1ncn(-c2ccc(N3CCN(c4ccc(OC[C@@H]5CO[C@@](Cn6cncn6)(c6ccc(F)cc6F)C5)cc4)CC3)cc2)c1=O` [POSACONAZOLE]: in the data set on Hepatotoxicity [1], the HepSE_liver disease was 0. The “HepSE_elevated liver function tests” value with Hepatotoxicity [2] was 0. For the same compound, the HepSE_hepatitis in the data set with Hepatotoxicity [3] was determined as 1. The same compound had a HepSE_liver fatty in the data set on Hepatotoxicity [4] of 0. In the data set with Hepatotoxicity [5], this compound displayed a HepSE_cholelithiasis of 0. In addition, in the data set with Hepatotoxicity [6], the HepSE_hepatic failure came to 1. Moreover, the HepSE_cirrhosis with Hepatotoxicity [7] came to 0. The compound further showed a HepSE_hepatic necrosis in the data set on Hepatotoxicity [8] of 0. The compound further returned a HepSE_cholecystitis with Hepatotoxicity [9] of 0. Moreover, the “HepSE_Combined Scores” value with Hepatotoxicity [10] worked out at 6. The compound further displayed a HepSE_hepatomegaly in the data set with Hepatotoxicity [11] of 1. Further, the “HepSE_liver function tests abnormal” value in the data set with Hepatotoxicity [12] came out at 1. Moreover, in the data set on Hepatotoxicity [13], the HepSE_bilirubinemia is 1. The compound also returned a HepSE_jaundice in the data set on Hepatotoxicity [14] of 1.
The compound `CC(=O)Nc1nnc(S(N)(=O)=O)s1` [ACETAZOLAMIDE] displayed a HepSE_liver disease in the data set on Hepatotoxicity [1] of 0. For the same compound, the “HepSE_elevated liver function tests” value with Hepatotoxicity [2] amounted to 0. For the same compound, in the data set with Hepatotoxicity [3], the HepSE_hepatitis is 0. Further, the HepSE_liver fatty with Hepatotoxicity [4] was determined as 0. In the data set on Hepatotoxicity [5], this compound displayed a HepSE_cholelithiasis of 0. The HepSE_hepatic failure in the data set with Hepatotoxicity [6] was 0. The compound further returned a HepSE_cirrhosis with Hepatotoxicity [7] of 0. Further, the HepSE_hepatic necrosis with Hepatotoxicity [8] came to 1. The compound further yielded a HepSE_cholecystitis in the data set with Hepatotoxicity [9] of 0. Moreover, the “HepSE_Combined Scores” value in the data set on Hepatotoxicity [10] is recorded as 2. Further, the HepSE_hepatomegaly with Hepatotoxicity [11] was 0. Further, in the data set with Hepatotoxicity [12], the “HepSE_liver function tests abnormal” value is 0. Besides, the HepSE_bilirubinemia in the data set on Hepatotoxicity [13] amounted to 0. In the data set on Hepatotoxicity [14], the HepSE_jaundice is on record as 1.
In the data set on Hepatotoxicity [1], `COc1c(N2CCNC(C)C2)c(F)cc2c(=O)c(C(=O)O)cn(C3CC3)c12` (stereo not given) [GATIFLOXACIN] came in with a HepSE_liver disease of 0. Moreover, the “HepSE_elevated liver function tests” value in the data set with Hepatotoxicity [2] was 0. Further, the HepSE_hepatitis with Hepatotoxicity [3] turned out to be 1. Moreover, the HepSE_liver fatty in the data set with Hepatotoxicity [4] stood at 0. The HepSE_cholelithiasis in the data set with Hepatotoxicity [5] is 0. The HepSE_hepatic failure in the data set on Hepatotoxicity [6] is 0. Besides, the HepSE_cirrhosis with Hepatotoxicity [7] stood at 0. Also, in the data set with Hepatotoxicity [8], the HepSE_hepatic necrosis amounted to 0. Besides, the HepSE_cholecystitis with Hepatotoxicity [9] is reported as 0. Also, the “HepSE_Combined Scores” value in the data set with Hepatotoxicity [10] stood at 1. The compound further registered a HepSE_hepatomegaly in the data set with Hepatotoxicity [11] of 0. Besides, in the data set on Hepatotoxicity [12], the “HepSE_liver function tests abnormal” value worked out at 0. Also, the HepSE_bilirubinemia with Hepatotoxicity [13] was determined as 0. This compound returned a HepSE_jaundice in the data set on Hepatotoxicity [14] of 0.
In the data set with Hepatotoxicity [1], `CNC(=O)c1cc(Oc2ccc(NC(=O)Nc3ccc(Cl)c(C(F)(F)F)c3)cc2)ccn1` [SORAFENIB] came in with a HepSE_liver disease of 0. The “HepSE_elevated liver function tests” value with Hepatotoxicity [2] turned out to be 0. The HepSE_hepatitis in the data set on Hepatotoxicity [3] is 0. The compound further gave a HepSE_liver fatty in the data set with Hepatotoxicity [4] of 0. The HepSE_cholelithiasis in the data set on Hepatotoxicity [5] stood at 0. Moreover, the HepSE_hepatic failure with Hepatotoxicity [6] turned out to be 0. Also, the HepSE_cirrhosis with Hepatotoxicity [7] is given as 0. In the data set on Hepatotoxicity [8], this compound showed a HepSE_hepatic necrosis of 0. The same compound displayed a HepSE_cholecystitis in the data set with Hepatotoxicity [9] of 1. Also, the “HepSE_Combined Scores” value in the data set on Hepatotoxicity [10] is listed as 2. In addition, the HepSE_hepatomegaly with Hepatotoxicity [11] was 0. Further, the “HepSE_liver function tests abnormal” value with Hepatotoxicity [12] is on record as 0. This compound returned a HepSE_bilirubinemia in the data set on Hepatotoxicity [13] of 0. For the same compound, the HepSE_jaundice with Hepatotoxicity [14] turned out to be 1.
In the data set with Hepatotoxicity [1], `CC1(C)S[C@@H]2[C@H](NC(=O)[C@H](N)c3ccccc3)C(=O)N2[C@H]1C(=O)O` [AMPICILLIN] displayed a HepSE_liver disease of 0. The “HepSE_elevated liver function tests” value in the data set on Hepatotoxicity [2] came out at 0. This compound also had a HepSE_hepatitis with Hepatotoxicity [3] of 0. Further, in the data set on Hepatotoxicity [4], the HepSE_liver fatty is given as 0. Also, the HepSE_cholelithiasis with Hepatotoxicity [5] worked out at 0. Also, the HepSE_hepatic failure with Hepatotoxicity [6] was 0. Moreover, the HepSE_cirrhosis in the data set with Hepatotoxicity [7] was 0. Besides, the HepSE_hepatic necrosis with Hepatotoxicity [8] was 0. The compound further had a HepSE_cholecystitis in the data set on Hepatotoxicity [9] of 0. Besides, the “HepSE_Combined Scores” value in the data set on Hepatotoxicity [10] was 0. In the data set on Hepatotoxicity [11], this compound gave a HepSE_hepatomegaly of 0. Besides, the “HepSE_liver function tests abnormal” value with Hepatotoxicity [12] is reported as 0. The same compound yielded a HepSE_bilirubinemia in the data set with Hepatotoxicity [13] of 0. Further, the HepSE_jaundice with Hepatotoxicity [14] was 0.
For `NC(=O)N1c2ccccc2CC(=O)c2ccccc21` [OXCARBAZEPINE], in the data set on Hepatotoxicity [1], the HepSE_liver disease is given as 0. In addition, in the data set on Hepatotoxicity [2], the “HepSE_elevated liver function tests” value stood at 0. This compound came in with a HepSE_hepatitis in the data set on Hepatotoxicity [3] of 0. The compound also displayed a HepSE_liver fatty in the data set on Hepatotoxicity [4] of 0. The HepSE_cholelithiasis with Hepatotoxicity [5] is on record as 1. The same compound yielded a HepSE_hepatic failure in the data set on Hepatotoxicity [6] of 0. The HepSE_cirrhosis in the data set on Hepatotoxicity [7] amounted to 0. Besides, in the data set on Hepatotoxicity [8], the HepSE_hepatic necrosis was found to be 0. In the data set with Hepatotoxicity [9], this compound registered a HepSE_cholecystitis of 0. Moreover, in the data set on Hepatotoxicity [10], the “HepSE_Combined Scores” value came out at 2. In the data set with Hepatotoxicity [11], this compound yielded a HepSE_hepatomegaly of 0. Also, the “HepSE_liver function tests abnormal” value in the data set on Hepatotoxicity [12] turned out to be 1. Moreover, in the data set on Hepatotoxicity [13], the HepSE_bilirubinemia stood at 0. For the same compound, in the data set on Hepatotoxicity [14], the HepSE_jaundice stood at 0.
Regarding `Cn1c(=O)c2[nH]cnc2n(C)c1=O.O` [THEOPHYLLINE], in the data set with Hepatotoxicity [1], the HepSE_liver disease is 0. In addition, in the data set on Hepatotoxicity [2], the “HepSE_elevated liver function tests” value was 0. In addition, the HepSE_hepatitis in the data set on Hepatotoxicity [3] was determined as 0. Besides, the HepSE_liver fatty in the data set with Hepatotoxicity [4] turned out to be 0. Besides, the HepSE_cholelithiasis with Hepatotoxicity [5] is reported as 0. In the data set with Hepatotoxicity [6], the HepSE_hepatic failure was 0. The HepSE_cirrhosis in the data set with Hepatotoxicity [7] came to 0. The HepSE_hepatic necrosis in the data set on Hepatotoxicity [8] came to 0. In the data set on Hepatotoxicity [9], this compound showed a HepSE_cholecystitis of 0. In addition, in the data set on Hepatotoxicity [10], the “HepSE_Combined Scores” value is 0. This compound also displayed a HepSE_hepatomegaly in the data set on Hepatotoxicity [11] of 0. Also, the “HepSE_liver function tests abnormal” value with Hepatotoxicity [12] is 0. This compound registered a HepSE_bilirubinemia in the data set with Hepatotoxicity [13] of 0. In the data set on Hepatotoxicity [14], this compound had a HepSE_jaundice of 0.
Regarding `CN1CC[C@]23c4c5ccc(O)c4O[C@H]2C(=O)CC[C@H]3[C@H]1C5` [HYDROMORPHONE], in the data set with Hepatotoxicity [1], the HepSE_liver disease is recorded as 0. Besides, the “HepSE_elevated liver function tests” value in the data set on Hepatotoxicity [2] was found to be 0. In the data set on Hepatotoxicity [3], this compound registered a HepSE_hepatitis of 0. The same compound registered a HepSE_liver fatty in the data set on Hepatotoxicity [4] of 0. Also, in the data set on Hepatotoxicity [5], the HepSE_cholelithiasis is reported as 0. In the data set with Hepatotoxicity [6], this compound came in with a HepSE_hepatic failure of 1. Also, in the data set with Hepatotoxicity [7], the HepSE_cirrhosis worked out at 0. Moreover, in the data set on Hepatotoxicity [8], the HepSE_hepatic necrosis is recorded as 0. The same compound showed a HepSE_cholecystitis in the data set on Hepatotoxicity [9] of 1. The “HepSE_Combined Scores” value in the data set on Hepatotoxicity [10] is 5. In the data set on Hepatotoxicity [11], the HepSE_hepatomegaly stood at 1. For the same compound, the “HepSE_liver function tests abnormal” value in the data set with Hepatotoxicity [12] is reported as 1. The HepSE_bilirubinemia in the data set with Hepatotoxicity [13] was found to be 0. Further, in the data set with Hepatotoxicity [14], the HepSE_jaundice is given as 1.
With `CCn1cc(C(=O)O)c(=O)c2ccc(C)nc21` [NALIDIXIC ACID], the HepSE_liver disease in the data set on Hepatotoxicity [1] was 0. In the data set on Hepatotoxicity [2], the “HepSE_elevated liver function tests” value was 0. For the same compound, the HepSE_hepatitis with Hepatotoxicity [3] came out at 0. Further, the HepSE_liver fatty with Hepatotoxicity [4] was determined as 0. This compound gave a HepSE_cholelithiasis in the data set with Hepatotoxicity [5] of 0. Moreover, in the data set with Hepatotoxicity [6], the HepSE_hepatic failure was determined as 0. Further, the HepSE_cirrhosis in the data set on Hepatotoxicity [7] was determined as 0. This compound showed a HepSE_hepatic necrosis in the data set on Hepatotoxicity [8] of 0. The HepSE_cholecystitis in the data set on Hepatotoxicity [9] was determined as 0. The “HepSE_Combined Scores” value with Hepatotoxicity [10] was 0. The compound further displayed a HepSE_hepatomegaly in the data set with Hepatotoxicity [11] of 0. Also, the “HepSE_liver function tests abnormal” value in the data set on Hepatotoxicity [12] is given as 0. The same compound yielded a HepSE_bilirubinemia in the data set with Hepatotoxicity [13] of 0. This compound also showed a HepSE_jaundice in the data set with Hepatotoxicity [14] of 0.
